Test results taken from patent publication US12077524B2, “Crystal of pyrrolidine compound” (MITSUBISHI TANABE PHARMA CORPORATION, priority 2018, dated 2024).
Counter-ions that a name gives are not always drawn. Like-named read-outs stand apart in the source and are kept apart here.

Legend:
Format in all cases: physicochemical
[1] = Hygroscopicity or deliquescency evaluation (moisture adsorption, DVS)
Procedure: Hygroscopicity or deliquescency was evaluated as follows by using a moisture adsorption measurement device DVS-1 or DVS-intrinsic (Surface Measurement Systems Limited). Each sample was placed into a cell of which the tare weight had been corrected in advance, and the cell was hung on the precision balance of said device to precisely measure the weight at the start of measurement. The humidity was changed in a stepwise manner, the weight change was recorded with time, and the equilibrium weight was calculated at each humidity. On the basis of the weight of anhydride converted from the amount of water at a dried condition (0% RH) or at the start of measurement observed by an alternative method, the weight change rate at each humidity was calculated.

[2] = Thermal stability evaluation (TG/DTA); settings: for Thermal stability TG: weight change: 10 K/min, nitrogen
Procedure: Thermal stability was evaluated by using a thermogravimetry/differential thermal analyzer TG/DTA7200 (SII NanoTechnology Inc.) under the following conditions. • Rate of temperature increase: 10 K/min • Atmosphere: nitrogen 200 mL/min <Hygroscopicity or Deliquescency Evaluation>

[3] = Chemical stability evaluation (storage 1 week, related substances by HPLC, observation of sample)
Procedure: Each sample was stored at 60° C. under a sealed condition and at 60° C. under 75% RH for 1 week, an increase or decrease of related substances after the storage was calculated by high-performance liquid chromatographic method on the basis of the area percentage of each peak. Also, the condition of each sample after the storage was observed.

## COC[C@H]1CN(C(=O)[C@]2(F)CN(C3CCCC3)C[C@H]2c2ccc(OC)cc2)C[C@@H]1c1ccc(C(F)(F)F)cc1N1CCC(C(=O)O)CC1 [Amorphous of free form, 1-{2-[(3S,4R)-1-[(3R,4R)-1-cyclopentyl-3-fluoro-4-(4-methoxyphenyl)pyrrolidine-3-carbonyl]-4-(methoxymethyl)pyrrolidin-3-yl]-5-(trifluoromethyl)phenyl}piperidine-4-carboxylic acid]
[1]
  Hygroscopicity or Deliquescency: Weight change under 90% RH: 1.8%
[2]; 30-130° C.
  Thermal stability TG: weight change: 2.2%

## COC[C@H]1CN(C(=O)[C@]2(F)CN(C3CCCC3)C[C@H]2c2ccc(OC)cc2)C[C@@H]1c1ccc(C(F)(F)F)cc1N1CCC(C(=O)O)CC1 [Amorphous of hydrochloride, 1-{2-[(3S,4R)-1-[(3R,4R)-1-cyclopentyl-3-fluoro-4-(4-methoxyphenyl)pyrrolidine-3-carbonyl]-4-(methoxymethyl)pyrrolidin-3-yl]-5-(trifluoromethyl)phenyl}piperidine-4-carboxylic acid]
[1]
  Deliquescency: deliquescent
  Hygroscopicity or Deliquescency: Weight change under 90% RH: 11.87%
[1]; listed as hydrochloride of the Pyrrolidine compound A
  Deliquescency: has deliquescency
[1]; under 90% RH
  Hygroscopicity or Deliquescency: observation (deliquescent): deliquescent
[3]; 60° C., 75% RH, 1 week
  Chemical stability: condition of sample after the storage: deliquescent
[2]; 30-150° C.
  Thermal stability TG: weight change: 4.8%

## COC[C@H]1CN(C(=O)[C@]2(F)CN(C3CCCC3)C[C@H]2c2ccc(OC)cc2)C[C@@H]1c1ccc(C(F)(F)F)cc1N1CCC(C(=O)O)CC1 [Crystal of free form, 1-{2-[(3S,4R)-1-[(3R,4R)-1-cyclopentyl-3-fluoro-4-(4-methoxyphenyl)pyrrolidine-3-carbonyl]-4-(methoxymethyl)pyrrolidin-3-yl]-5-(trifluoromethyl)phenyl}piperidine-4-carboxylic acid]
[3]
  Chemical stability: poor

## COC[C@H]1CN(C(=O)[C@]2(F)CN(C3CCCC3)C[C@H]2c2ccc(OC)cc2)C[C@@H]1c1ccc(C(F)(F)F)cc1N1CCC(C(=O)O)CC1 [Present crystal, 1-{2-[(3S,4R)-1-[(3R,4R)-1-cyclopentyl-3-fluoro-4-(4-methoxyphenyl)pyrrolidine-3-carbonyl]-4-(methoxymethyl)pyrrolidin-3-yl]-5-(trifluoromethyl)phenyl}piperidine-4-carboxylic acid]
[1]; listed as Phosphoric acid Form B crystal
  Deliquescency: not deliquescent
[2]; 30-230° C.
  Thermal stability TG: weight change: No change
[2]; even at 200° C. or more
  Weight change on heating: did not show a weight change
